Series [1] relates to HUVEC. Description: cells. The format is cell-based, human. The conditions noted are these: for IC50: HUVEC. The method, then: (§1) The anti-angiogenesis and anti-proliferative activity of the conjugates described herein was evaluated by the effect of the conjugates on the proliferation of HUVEC, U87 and PANC02 cells.
(§2) HUVEC were plated onto 24-well plate (1×10^4 cells/well) in endothelial cell basal medium 2 (EBM-2; Cambrex, USA) supplemented with 5% fetal bovine serum (FBS). Following 24 hours of incubation (37° C.; 5% CO2) medium was replaced with Endothelial cell growth medium-2 (EGM-2; Cambrex, USA). U87 and PANC02 cells were plated onto 96 well plate (2×10^3 cells/well) in DMEM supplemented with 5% FBS and incubated for 24 hours (37° C.; 5% CO2). Following 24 hours of incubation the medium was replaced with DMEM containing 10% FBS. Cells were challenged with the tested compounds at serial concentrations for 72 hours. After incubation the number of HUVEC were counted by Coulter Counter and U87, and PANC02 cells were counted by XTT respectively.

Series [2] relates to mCherry-labeled U87 human osteosarcoma tumors. Kind of series: In vivo accumulation of OG-labeled conjugates in tumors, confocal microscopy. The arrangement: species or system SCID mice. The conditions noted are these: i.v., 50 μM-RGD; tumors removed one hour after injection; FIG. 17A. The source says: SCID male were inoculated s.c. with 2×10^6 mCherry-labeled U87 human […] or with 5×10^6 mCherry-labeled MG-63 human osteosarcoma. […] One hour after injection, tumors were removed, dissected to thin slices and examined under Zeiss Meta LSM 510 confocal imaging system.
Cellular colocalization of OG labeled PGA-E-[c(RGDfk)2] (SEQ ID NO: 25) conjugate was monitored utilizing a Zeiss Meta LSM 510 confocal imaging systems with 40 oil objectives. All images were taken using a multi-track channel acquisition to prevent emission cross-talk between fluorescent dyes. Single XY, XZ plane-images were acquired in 1024×1024 resolution.

The subject of series [3] is PANC02 murine pancreatic tumor cells. Kind of series: Cell proliferation assay, PANC02. It counts as cell-based. The settings on record: Mus musculus. The method, then:
as §1, §2

Series [4] relates to HUVEC. Kind of series: Endothelial cell adhesion assay on fibrinogen coated plates. It counts as cell-based, human. The conditions noted are these: free PTX, PGA and combinations; FIG. 15. As for the experimental part: The ability of E-[c(RGDfk)2] and E-c(RGDfk) moieties (SEQ ID NOs: 2 and 41) in the conjugates to inhibit endothelial attachment to cellular matrix after conjugation, was assessed using an adhesion assay. Flat bottom 96-well culture plates (Nunc, Denmark) were coated with 0.5 μg/well fibrinogen overnight at 4° C. After washing three times with Phosphate buffered saline (PBS), the wells were blocked with 1% bovine serum albumin (BSA) for 1 hour at 37° C. and washed three times again with PBS. HUVEC were harvested in phosphate-buffered saline (137 mM NaCl, 2.7 mM KCl, 4.3 mM Na2HPO4, 1.4 mM KH2PO4, pH 7.3) with 2.5 mM EDTA and resuspended in EBM-2 serum-free media (Clonetics). HUVEC were incubated for 30 minutes, at room temperature, with the tested compounds. The treated HUVEC were plated at 5×10^4 cells per well and were allowed to attach for 1 hour at 37° C. After incubation, the unattached cells were removed by rinsing the wells with PBS. The attached cells were fixed with 3.7% formaldehyde, stained with 0.5% crystal violet and were imaged using Nikon TE2000E inverted microscope integrated with Nikon DS5 cooled CCD camera by 4× objective, brightfield technique. The number of attached cells was quantified with NIH ImageJ processing and analysis software. Non-specific binding was determined by adhesion of HUVEC cells, which were not incubated with any of the tested compounds, to BSA-coated plates.

The subject of series [5] is HUVEC. Description: Migration assay of HUVEC towards VEGF. It counts as cell-based, human. The conditions noted are these: Homo sapiens, HUVEC; equivalent concentrations of 100 nM PTX; conjugate with 5 mol % E-[c(RGDfk)2], 2.6 mol % PTX; FIG. 14. The method, then:
The anti-angiogenesis activity of the conjugates was evaluated by examining the effect of the conjugates on the ability of HUVEC to migrate toward the Vascular Endothelial Growth Factor (VEGF).
Cell migration assay was performed using modified 8 μm Boyden chambers Transwells® (Costar Inc., USA) coated with 10 μg/ml fibronectin HUVEC (15×10^4 cells/100 μl) were challenged with the tested compounds that were added to the upper chamber of the transwells for 2 hours. Following incubation, cells were allowed to migrate to the underside of the chamber for 4 hours in the presence or absence of VEGF (20 ng/ml) in the lower chamber. Cells were then fixed and stained (Hema 3 Stain System; Fisher Diagnostics, USA). The stained migrated cells were imaged using Nikon TE2000E inverted microscope integrated with Nikon DS5 cooled CCD camera by 10× objective, brightfield illumination. Migrated cells from the captured images per membrane were counted using NIH image software. Migration was normalized to the percent of migration toward VEGF of HUVEC which were not incubated with any compound. The extent of migration is inversely proportional to the anti-angiogenesis activity of the compounds.

Series [6] relates to U87 human glioblastoma cells. Kind of series: Cell proliferation assay, U87. The format is cell-based. The settings on record: Homo sapiens. The method, then: as §1, §2
In series [7] the test system is HUVEC. Description: Capillary-like tube formation assay. The format is cell-based, human. The settings on record: Homo sapiens, HUVEC; equivalent concentrations of 10 nM (PTX) and 19 nM (E-[c(RGDfk)2]); conjugate with 5 mol % E-[c(RGDfk)2], 2.6 mol % PTX; FIG. 16B; read-out: inhibition of the formation of tubular structures of HUVEC. As for the experimental part: The anti-angiogenesis activity of the conjugates was evaluated by the effect of the conjugates on the ability of HUVEC cells to form capillary-like tube structures.
The surface of 24-well plates was coated with Matrigel matrix (50 μl/well) (BD Biosciences, USA) on ice and was then allowed to polymerize at 37° C. for 30 minutes. HUVEC (3×10^4 cells) were challenged with the tested compounds, and were seeded on coated plates in the presence of complete EGM-2 medium. After 8 hours of incubation (37° C.; 5% CO2), wells were imaged using Nikon TE2000E inverted microscope integrated with Nikon DS5 cooled CCD camera by 4× objective, brightfield technique. During the tube formation assay endothelial cells directionally migrate to align, branch and form polygonal networks (i.e. tube like structures). The extent of capillary-like tube structures is inversely proportional to the anti-angiogenesis activity of the compounds.

The target of series [8] is T1, αvβ3 integrin receptor (Homo sapiens, UniProt P05106+P06756).
T1 construct: endogenous in cells; host or cells: HUVEC
Description: αvβ3 interaction with fluorescently labeled conjugates in HUVEC. It counts as cell-based. The method, then: A fluorescence probe, Oregon Green-cadaverine (OG), was conjugated to PGA conjugates through the free carboxylic groups (see Example 5 for synthesis description), in order to study the cellular uptake and trafficking.
HUVEC were plated onto 6 mm plates (5×10^5 cells/plate) in EBM-2 (Cambrex, USA) supplemented with 5% FBS. Following 24 hours of incubation (37° C.; 5% CO2), cells were challenged with either PGA-OG, PGA-c(RADfk)-OG (SEQ ID NO: 24) or PGA-E-[c(RGDfk)2]-OG (SEQ ID NO:25) diluted in EGM-2 medium for 5, 10, 15, 30 or 60 minutes. Cells were then washed in PBS (×3), harvested with PBS containing 2.5 mM EDTA and analyzed with the ImageStream 100 imaging flow cytometer (Amnis). Analysis was performed using IDEAS software.

From patent US9259482B2, “Conjugates of polymers having a therapeutically active agent and an angiogenesis targeting moiety attached thereto and uses thereof in the treatment of angiogenesis related diseases” (Ramot at Tel-Aviv University Ltd., priority 2008, dated 2016) come the findings set out here.

Read-outs that look alike come from different tables or passages of the source.

One may read the inhibition as the relative decrease from the control value, in per cent.

T1 sequence (P06756 31-889 limits assumed): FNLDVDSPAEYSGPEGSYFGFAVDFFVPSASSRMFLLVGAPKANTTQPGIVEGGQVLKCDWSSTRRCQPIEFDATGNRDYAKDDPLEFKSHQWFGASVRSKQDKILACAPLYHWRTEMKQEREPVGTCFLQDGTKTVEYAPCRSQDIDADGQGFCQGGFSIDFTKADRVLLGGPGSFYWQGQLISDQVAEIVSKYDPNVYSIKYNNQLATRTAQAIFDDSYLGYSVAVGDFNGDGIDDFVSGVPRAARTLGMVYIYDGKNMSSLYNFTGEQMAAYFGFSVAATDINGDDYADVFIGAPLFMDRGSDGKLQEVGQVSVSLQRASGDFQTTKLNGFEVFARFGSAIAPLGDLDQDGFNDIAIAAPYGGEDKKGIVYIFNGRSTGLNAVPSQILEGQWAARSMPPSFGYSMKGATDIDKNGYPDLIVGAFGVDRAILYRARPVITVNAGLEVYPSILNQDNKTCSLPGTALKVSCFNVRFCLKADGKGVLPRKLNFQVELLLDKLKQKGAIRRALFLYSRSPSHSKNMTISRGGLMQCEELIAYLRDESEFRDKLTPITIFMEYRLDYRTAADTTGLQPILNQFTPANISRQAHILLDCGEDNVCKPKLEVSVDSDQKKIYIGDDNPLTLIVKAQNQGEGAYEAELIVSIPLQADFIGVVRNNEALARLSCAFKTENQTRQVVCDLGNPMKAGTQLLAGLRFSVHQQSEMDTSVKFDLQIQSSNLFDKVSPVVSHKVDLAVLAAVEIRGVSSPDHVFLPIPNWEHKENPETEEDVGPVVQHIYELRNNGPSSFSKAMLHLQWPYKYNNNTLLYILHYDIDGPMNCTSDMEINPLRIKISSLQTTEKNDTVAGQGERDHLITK
T1 sequence (P06756 891-1048 limits assumed): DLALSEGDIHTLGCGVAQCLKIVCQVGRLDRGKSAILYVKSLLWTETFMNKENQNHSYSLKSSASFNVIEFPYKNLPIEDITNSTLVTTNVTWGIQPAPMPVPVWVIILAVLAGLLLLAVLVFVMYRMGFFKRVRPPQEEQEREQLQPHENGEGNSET
T1 sequence (P05106 27-788): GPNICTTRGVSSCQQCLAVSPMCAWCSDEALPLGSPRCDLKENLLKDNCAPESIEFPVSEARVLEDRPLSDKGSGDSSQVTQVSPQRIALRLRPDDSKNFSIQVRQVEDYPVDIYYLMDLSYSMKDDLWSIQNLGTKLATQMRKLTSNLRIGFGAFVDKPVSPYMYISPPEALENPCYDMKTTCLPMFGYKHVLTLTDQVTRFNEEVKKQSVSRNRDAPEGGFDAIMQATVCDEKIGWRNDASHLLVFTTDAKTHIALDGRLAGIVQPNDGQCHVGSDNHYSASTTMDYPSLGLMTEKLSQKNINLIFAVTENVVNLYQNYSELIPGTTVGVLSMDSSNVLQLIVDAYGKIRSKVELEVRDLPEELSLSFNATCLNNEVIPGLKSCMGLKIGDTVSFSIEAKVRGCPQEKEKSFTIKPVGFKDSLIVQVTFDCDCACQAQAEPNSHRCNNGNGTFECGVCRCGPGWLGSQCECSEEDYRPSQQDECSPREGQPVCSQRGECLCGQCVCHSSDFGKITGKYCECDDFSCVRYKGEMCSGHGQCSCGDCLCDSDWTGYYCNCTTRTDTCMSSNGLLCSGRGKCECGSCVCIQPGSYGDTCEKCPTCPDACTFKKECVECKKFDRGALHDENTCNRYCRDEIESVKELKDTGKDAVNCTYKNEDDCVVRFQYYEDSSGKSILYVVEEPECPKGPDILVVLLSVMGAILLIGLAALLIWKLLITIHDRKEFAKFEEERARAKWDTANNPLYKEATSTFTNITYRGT

Consider PGA-E-[c(RGDfk)2], for which the “effect on HUVEC proliferation” value in series [1] (FIG. 12A) is “only at high concentrations”. The IC50 in series [1] (72 hours, bis-cyclic RGD compounds (X = 2), NA = did not reach IC50 in the concentrations used, 'a -- b' = bell-shaped curve, read-out: IC50 (nM) of PGA- PTX-E-[c(RGDfk)2] (SEQ ID NO: 18) 2.6 mol % PTX, 5 mol % RGD) was 2900 nM; in series [1] (72 hours, bis-cyclic RGD compounds (X = 2), NA = did not reach IC50 in the concentrations used, 'a -- b' = bell-shaped curve, read-out: IC50 (nM) of PGA- PTX-E-[c(RGDfk)2] (SEQ ID NO: 18) 5 mol % PTX, 3.9 mol % RGD) it was 7000 nM. The “accumulation of the conjugate at the tumor site” value in series [2] is “able to accumulate in the tumor tissue”.

Consider `CC(=O)O[C@H]1C(=O)[C@@]2(C)[C@H]([C@H](OC(=O)c3ccccc3)[C@]3(O)C[C@H](OC(=O)[C@H](O)[C@@H](NC(=O)c4ccccc4)c4ccccc4)C(C)=C1C3(C)C)[C@]1(OC(C)=O)CO[C@@H]1C[C@@H]2O` [PTX, Paclitaxel], for which the IC50 in series [3] (Panc02, nM PTX, equivalent doses, FIG. 12C, read-out: IC50 of PANC02 proliferation) was roughly 200 nM; in series [3] (PANC02, 72 hours, bis-cyclic RGD compounds (X = 2), NA = did not reach IC50 in the concentrations used, read-out: IC50 (nM) of PGA- PTX-E-[c(RGDfk)2] (SEQ ID NO: 18) 5 mol % PTX, 3.9 mol % RGD), 200 nM; in series [1] (Homo sapiens, nM PTX, FIG. 12A, read-out: IC50 of HUVEC proliferation) it was roughly 0.01 nM; in series [1] (Homo sapiens, 72 hours, bis-cyclic RGD compounds (X = 2), NA = did not reach IC50 in the concentrations used, 'a -- b' = bell-shaped curve, read-out: IC50 (nM) of PGA- PTX-E-[c(RGDfk)2] (SEQ ID NO: 18) 2.6 mol % PTX, 5 mol % RGD) it was 0.01 nM; in series [1] (Homo sapiens, 72 hours, bis-cyclic RGD compounds (X = 2), NA = did not reach IC50 in the concentrations used, 'a -- b' = bell-shaped curve, read-out: IC50 (nM) of PGA- PTX-E-[c(RGDfk)2] (SEQ ID NO: 18) 5 mol % PTX, 3.9 mol % RGD), 0.009 nM; in series [1] (Homo sapiens, 72 hours, experiment with monocyclic RGD compounds (X = 1), NA = did not reach IC50 in the concentrations used, 'a -- b' = bell-shaped curve, read-out: IC50 (nM) of PGA- PTX-E-c(RGDfk) (SEQ ID NO: 16) 2.1 mol % PTX, 5 mol % RGD), 0.0085 nM. For the same molecule, the IC50 was 0.045 nM in series [6] (U87, 72 hours, bis-cyclic RGD compounds (X = 2), NA = did not reach IC50 in the concentrations used, 'a -- b' = bell-shaped curve, read-out: IC50 (nM) of PGA- PTX-E-[c(RGDfk)2] (SEQ ID NO: 18) 5 mol % PTX, 3.9 mol % RGD) and roughly 0.01 nM in series [6] (nM PTX, equivalent doses, FIG. 12B, read-out: IC50 of U87 proliferation). Moreover, the “effect on endothelial cell adhesion” value in series [4] is given as “negligent effect”. Further, the inhibition at 0.1 µM in series [5] is roughly 55%. Also, the inhibition at 0.01 µM in series [7] was roughly 50%.

Consider PGA-E-[c(RGDfk)2]-OG, for which the “time at which conjugate-cell adherence was first observed” value in series [8] (ImageStream 100 imaging flow cytometer) was determined as 10 min. In addition, the “extent of binding / uptake by HUVEC” value in series [8] (OG fluorescence, FIGS. 11B, 11C) is “higher uptake”. In series [2], the “accumulation of the conjugate at the tumor site” value is “high accumulation”.
